Entries after “also recorded” stand apart in the source; their conditions may differ.
What was measured:
[1] = test system: lymphocyte cultures derived from nodes; experiment: Induction of T-helper response to FIS: IL-2 and IFN-γ in lymph node lymphocyte culture supernatants; format: in vivo, BALB/c mice
Method: The FIS peptide is characterized as a T-helper determinant derived from sperm whale myoglobin, amino acids (106-118). This peptide has been widely used for the induction of antibodies against haptenic peptides. We wanted to analyse the effect of peptide p144 on the induction of a cytokine profile characterized among other things by the increase in IFN-γ and IL-12. In this model the following was administered by […] to groups of 3 female BALB/c mice, 4 to 8 weeks old, (Harlan, Barcelona), distributing the animals in the following treatments: • FIS: mice which received by […] a 1:1 emulsion of Freund's incomplete adjuvant and saline serum which contained 50 μg of FIS. • FIS+p144: mice which received by […] a 1:1 emulsion of Freund's incomplete adjuvant and saline serum which contained 50 μg of FIS and 50 μg of p144.
10 days after immunization, the animals were sacrificed and the popliteal, inguinal and periaortic lymph nodes were extracted. The nodes were homogenized with a syringe and they were washed three times at 4° C. with washing medium (clean RPMI 1640 medium). Next, the cells were resuspended in complete medium (RPMI 1640 with 10% FBS, 2 mM of glutamine, 100 U/ml of penicillin, 100 μg/ml of streptomycin, 5×10^−5 M of β-mercaptoethanol, 25 mM of Hepes and sodium pyruvate), at a concentration of 5.3×10^6 cells/ml adding 150 μl in each well of a flat-bottomed 96-well plate. The different peptide concentrations (6 and 10 μM) were added in triplicate and at a volume of […] per well. The cells were cultured in a stove at 37° C. and with 5% CO2 for two days. […] These supernatants were frozen at −20° C. until the quantification of the cytokine concentration.
The quantity of IFN-γ was measured using a commercial ELISA (Mouse IFN-γ Duoset ELISA Development System, Genzyme, Cambridge and OPTEIA Mouse IFN-γ Set, Pharmingen, San Diego, USA) in accordance with the manufacturer's instructions. The results were expressed as pg/ml of IFN-γ using a standard curve of known quantities of IFN-γ.
The quantity of IL-2 in each supernatant was measured by studying the proliferation of the CTL.L. cell line, whose growth is IL-2 dependent (Lai M. et al., 1987). […]
To perform the assay, the supernatants were cultured with 3000-5000 CTL.L. cells per well, diluted to a final volume of 100 μl. […] The radioactivity was quantified in a scintillation counter (Top Count, Microplate Scintillation Counter, Packard) after the addition of 25 μl of scintillation liquid (MICROSCINT®, Packard, Bioscience Company) per well. The results of the counts were expressed as mU/ml of IL-2, interpolating the counts of each well in a standard curve. […]

CT26 cells = experiment: Tumour growth of subcutaneous CT26 in AH1-immunized mice treated with peptides; format: in vivo, balb-c mice
Method: GROUPS: 4 groups of 7 female balb-c mice, of 6 weeks old/group.
AH1+FIA s.c.+p144 (50 μg i.p./dose/mouse) AH1+FIA s.c.+p17(1-11) (50 μg i.p./dose/mouse) DESIGN: AH1+FIA: […]; Peptides: from day −6 on alternate days until day 10: Tumour model volume: Each 3 days from day 10 to day 41. Challenge on day 0 with CT26 (500000 cells/mouse s.c. in the flank).
REDUCTION IN THE MEAN TUMOUR VOLUME BY GROUPS TREATED WITH PEPTIDES: The effect of peptides p144 and p17(1-11)Am was studied in a tumour progression model. In this model, mice were immunized with 50 μg of AH1 10 days before the administration of 5×10^5 CT26 cells. In order to verify the effect of blocking the TGF-β1 on the protection against CT tumour cells, another two groups of mice were treated on alternate days by intraperitoneal route between days 6 and 10 (50 μg/mouse/48 h) with peptides p144 and p17(1-11)Am. […] This protection reached 100% of the animals in the case of p144 (FIG. 16).

[2] = 50 μg FIS + 50 μg p144 in FIA versus FIS alone, in vitro restimulation with FIS
[3] = lymphocytes from mice immunized with FIS+p144

Substance: p144: peptide inhibiting TGF-β1 whose amino acid sequence corresponds to SEQ ID NO: 1 (TSLDASIIWAMMQN; Synthetic Construct from human TGB-Beta1 type III receptor.Domain730-743)
- IFN-γ production compared to FIS [1, 2]: reduced
- IL-2 production compared to FIS [1, 2]: reduced
- IFN-γ production when restimulating in vitro against p144 [1, 3]: some production of IFN-γ
- IL-2 production when restimulating in vitro against p144 [1, 3]: production of IL-2
- tumour growth (CT26 cells; 50 μg/mouse/48 h i.p. between days 6 and 10, s.c. CT26 on day 0, AH1 immunization 10 days before): protection against tumour growth; also recorded: delay tumour growth
- protection against tumour growth, share of animals (CT26 cells; measured on day 42 after subcutaneous administration of tumour cells): 100%

From patent US20090263410A1, “USE OF TGF-B1 INHIBITOR PEPTIDES IN THE PREPARATION OF AN IMMUNE RESPONSE MODULATING AGENT” (Proyecto De Biomedicina Cima, S.L., priority 2005, published 2009)
